Tests used:
[1] = test system: corneal endothelial wound; experiment: Rabbit corneal endothelial wound model, topical instillation (Example 1); type: in vivo; details: for area of the unrepaired wound site (corneal endothelium wound area): 6 times a day, 46 hours after wound creation
Experimental: In this Example, 0.95 mM (0.03 w/v%) compound (I) instillation and 0.32 mM (0.01 w/v%) compound (I) instillation obtained by diluting the above instillation with the above-mentioned vehicle were used.
As a positive control substances, Y-27632 dihydrochloride (Wako Pure Chemical Industries, Co., Ltd., Cat. #253-00513) and fasudil hydrochloride hydrate injection (Eril (registered trade mark) drip intravenous injection, Asahi Kasei Pharma) were purchased, and Y-27632 and Fasudil were each adjusted to 10 mM with phosphate-buffered saline (PBS, Invitrogen, Cat. #14190). In addition, PBS was used as a negative control substance.
Male Japanese white rabbits (body weight 2.5-3.0 kg, 21 rabbits) were purchased from Biotek Co., Ltd. and used. They are kept in individual cages at 23±3° C. temperature, at 55±10% humidity and 12 hours artificial light cycle (lighting on; 8:00 a.m., lighting off; 8:00 p.m.). One hundred grams of solid food (Labo R stock; Nosan Corp.) are provided daily to each animal. Water is supplied by automatic watering apparatus.
3. Excision of Nictitating Membrane of Animal Before starting the test, the nictitating membrane of both eyes of the animal was excised. To be specific, each animal was set in a positioner, and the ocular surface was topically anesthetized by instillation of a topical anesthesia (Benoxil instillation 0.4%, Santen Pharmaceutical Co., Ltd.). Then, the root position of the nictitating membrane was pressed with a clamp for 30 sec, and compressing mark was cut with scissors. After excision of the nictitating membrane, the antibiotic ointment (tarivid eye ointment, Santen Pharmaceutical Co., Ltd.) was instilled to prevent infection. After 4 days from the excision of the nictitating membrane, animals confirmed to have no abnormality in the external eye including the excised site were used.
The corneal thickness of the right eye of each animal was measured with an ultrasonic pachymeter (manufactured by DGH Technologies Inc., DGH-500), and the animals were divided into 4 groups such that the corneal thickness of each group was equal. The animals used for each group were as follows. • 10 mM Y-27632 group=5 eyes • 0.32 mM compound (I) group=5 eyes • 0.95 mM compound (I) group=6 eyes • 10 mM Fasudil group=5 eyes • PBS group=21 eyes (left eye)
The animals were sytemically anesthetized by intramuscular administration of Ketalar muscular injection ([…], DAIICHI SANKYO COMPANY, LIMITED., 0.6 ml) and Celactal 2% Injection (Bayer, Ltd., 0.25 ml). Then, Benoxil instillation 0.4% (Santen Pharmaceutical Co., Ltd., one drop) was instilled and the eye was opened using a lid speculum.
A 7-mm diameter stainless dowel that had been cooled in liquid nitrogen was placed on the central cornea of both eyes of 21 animals for 15 sec. to produce an ice ball in the anterior chamber and dissociate corneal endothelial cells, whereby a corneal endothelial wound was produced.
For topical instillation, after wound creation, compound (I) instillation, Y-27632 instillation or Fasudil instillation was instilled to the right eye, and PBS was instilled to the left eye 6 times a day (4 times on the day of wound production) at 50 μL per instillation. Administration interval in one day was 2 hours. […]

[2] = test system: cultured monkey corneal endothelial cells; details: in vitro; cited from earlier work
corneoscleral tissues = experiment: Cell death suppression in cornea preserved in corneal storage solution (Example 10); type: cell-based, rabbit; details: 4° C.
Experimental: In this Example, test substances and control substances prepared in the same manner as in Example 4 were used. Both right and left eyeballs of 5 male Japanese white rabbits (Biotek Co., Ltd.) were removed, and corneoscleral tissues were prepared. One corneoscleral tissue was placed in a storage solution Optisol-GS (registered trade mark) (Bausch & Lomb, Inc) (control), and the other corneoscleral tissue was placed in Optisol-GS containing 0.95 μM compound (I). Similarly, corneoscleral tissues were prepared from another 5 male Japanese white rabbits, one corneoscleral tissue was placed in Optisol-GS (control), and the other corneoscleral tissue was placed in Optisol-GS containing 10 μM Y-27632. The samples containing each corneoscleral tissue were preserved at 4° C. Two or three weeks later, the corneoscleral tissues were stained with Hoechst (Hoechst 33342, Sigma, Cat. #B2261), PI (propidium iodide, Sigma, Cat. #P4170) and Annexin V (Annexin V-FITC, MBL, Cat. #4700-100), and the cells therein were indentified as living cells, dead cells and apoptotic cells. In addition, the various cells in the stained cornea were counted using ImageJ (ver.1.44i, NIH, http://imagej.nih.gov/ij), and the mean value and the standard deviation of 5 visual fields were determined. The various cell counts were statistically analyzed by the student's t-test.

[3] = test system: rabbit corneal endothelial cells; experiment: Production of cultured corneal endothelial cell sheet for transplantation, ZO-1 and Na+/K+ ATPase immunostaining (Example 7); type: cell-based; details: for coverage of the sheet with cells / expression of Na+/K+ ATPase / expression of ZO-1: 48 hours after seeding
Experimental: In this Example, rabbit corneal endothelial cells prepared in the same manner as in Example 4 were used.
In this Example, moreover, test substances and control substance prepared in the same manner as in Example 4 were used.
The rabbit corneal endothelial cells were seeded on Vitrigel™ (Asahi Glass) at a division ratio of 1:1, and a cultured corneal endothelial cell sheet for transplantation was produced. When producing the corneal endothelial cell sheet, 0.95 μM compound (I), 10 μM Y-27632 or 0.04% DMSO was added. The obtained corneal endothelial cell sheet was subjected to fluorescence immunostaining with ZO-1 and Na^+/K^+ ATPase, which are functional proteins of corneal endothelial cells, and expression was confirmed.
The corneal endothelial cell sheet was fixed with 95% ethanol (−30° C.) for 10 min, washed with PBS, and treated with 0.5% Triton X-100/PBS for 5 min. Then, it was treated with 1% BSA/PBS for 1 hour, and treated overnight with anti-ZO-1 antibody (Invitrogen, Cat. #339100) or anti-Na^+/K^+ ATPase antibody (Millipore, Cat. #C464.6). After washing with PBS, it was treated with Alexa-488 labeling secondary antibody for 1 hour. After washing with PBS, mounting medium (Vectashield (registered trade mark)) containing DAPI was added dropwise to the sheet, and the sheet was sealed with cover glass. The image was taken with a fluorescence microscope to confirm expression of ZO-1 and Na^+/K^+ ATPase. The immunostaining was performed both 48 hours and 14 days after the seeding (FIG. 10 and FIG. 11).

Row | Compound | area of the unrepaired wound site (corneal endothelium wound area) ([1]; 10 mM instillation) [mm^2] | apoptosis [2] | cell adhesion [2] | cell cycle [2] | number of dead cells versus control (corneoscleral tissues; 10 μM in Optisol-GS) | coverage of the sheet with cells ([3]; 10 μM) | expression of Na+/K+ ATPase ([3]; 10 μM) | expression of ZO-1 ([3]; 10 μM) | area of the unrepaired wound site (corneal endothelium wound area) ([1]; 0.32 mM instillation) [mm^2] | area of the unrepaired wound site (corneal endothelium wound area) ([1]; 0.95 mM instillation) [mm^2] | wound area compared to the PBS instillation group ([1]; 0.95 mM instillation, Dunnett's test) | number of dead cells versus control (corneoscleral tissues; 0.95 μM in Optisol-GS, 2 weeks) | number of apoptotic cells versus control (corneoscleral tissues; 0.95 μM in Optisol-GS, 3 weeks) | number of dead cells versus control (corneoscleral tissues; 0.95 μM in Optisol-GS, 3 weeks) | coverage of the sheet with cells ([3]; 0.95 μM) | expression of Na+/K+ ATPase ([3]; 0.95 μM) | expression of ZO-1 ([3]; 0.95 μM) | time in which a cultured corneal endothelial cell sheet for transplantation can be produced ([3]; from the addition to culture medium) [h]
1 | C[C@@H](N)[C@H]1CC[C@H](C(=O)Nc2ccncc2)CC1 [Y-27632, reference compound] | 1.1 | suppression of apoptosis | promotion of cell adhesion | promotion of cell cycle | only the number of dead cells decreased significantly | partially uncovered with cells | found between cells in all | found between cells uniformly | – | – | – | – | – | – | – | – | – | –
2 | C[C@@H](N)c1ccc(C(=O)Nc2ccnc3[nH]ccc23)cc1.Cl [compound (I), (R)-(+)-N-(1H-pyrrolo[2,3-b]pyridin-4-yl)-4-(1-aminoethyl)benzamide monohydrochloride] | – | – | – | – | – | – | – | – | 1.1 | 0.4 | statistically significant decrease in the wound area | decreased significantly | decreased significantly | decreased significantly | cells were adhered to the whole surface of the sheet | found between cells in all | found between cells uniformly | 48
